Source: the supplement of paper PMC13380429

How the values were obtained:
Conditions in all cases: 72 h
Caco-2 [1] = assay: cell viability relative to DMSO; higher = less toxic
Calu-3 [2] = assay: as above
HepG2 [3] = assay: as above
U2OS [4] = assay: as above
Vero E6 [5] = assay: as above
Caco-2 [6] = assay: relative viability EC50 (midpoint between 100% and the lowest measured viability); higher = less toxic
Calu-3 [7] = assay: as above
HepG2 [8] = assay: as above
U2OS [9] = assay: as above
Vero E6 [10] = assay: as above
Caco-2 [11] = assay: drug sensitivity score (DSS) for viability; higher = more toxic; extreme values may be limits of the assay
Calu-3 [12] = assay: as above
HepG2 [13] = assay: as above
U2OS [14] = assay: as above
Vero E6 [15] = assay: as above

Row | SMILES | cell viability (Caco-2 [1]; 1 nM) [%] | cell viability (Caco-2 [1]; 10 nM) [%] | cell viability (Caco-2 [1]; 100 nM) [%] | cell viability (Caco-2 [1]; 1000 nM) [%] | cell viability (Caco-2 [1]; 10000 nM) [%] | cell viability (Calu-3 [2]; 1 nM) [%] | cell viability (Calu-3 [2]; 10 nM) [%] | cell viability (Calu-3 [2]; 100 nM) [%] | cell viability (Calu-3 [2]; 1000 nM) [%] | cell viability (Calu-3 [2]; 10000 nM) [%] | cell viability (HepG2 [3]; 1 nM) [%] | cell viability (HepG2 [3]; 10 nM) [%] | cell viability (HepG2 [3]; 100 nM) [%] | cell viability (HepG2 [3]; 1000 nM) [%] | cell viability (HepG2 [3]; 10000 nM) [%] | cell viability (U2OS [4]; 1 nM) [%] | cell viability (U2OS [4]; 10 nM) [%] | cell viability (U2OS [4]; 100 nM) [%] | cell viability (U2OS [4]; 1000 nM) [%] | cell viability (U2OS [4]; 10000 nM) [%] | cell viability (Vero E6 [5]; 1 nM) [%] | cell viability (Vero E6 [5]; 10 nM) [%] | cell viability (Vero E6 [5]; 100 nM) [%] | cell viability (Vero E6 [5]; 1000 nM) [%] | cell viability (Vero E6 [5]; 10000 nM) [%] | relative viability EC50 (Caco-2 [6]) [µM] | relative viability EC50 (Calu-3 [7]) [µM] | relative viability EC50 (HepG2 [8]) [µM] | relative viability EC50 (U2OS [9]) [µM] | relative viability EC50 (Vero E6 [10]) [µM] | drug sensitivity score (Caco-2 [11]) | drug sensitivity score (Calu-3 [12]) | drug sensitivity score (HepG2 [13]) | drug sensitivity score (U2OS [14]) | drug sensitivity score (Vero E6 [15])
1 | CCCc1c(OCC(O)COc2ccc3c(=O)cc(C(=O)O)oc3c2CCC)ccc(C(C)=O)c1O (stereo not given) | 99.1 | 92.4 | 93.6 | 102 | 95 | 107 | 90.8 | 99.7 | 102 | 109 | 99.8 | 107 | 96.9 | 103 | 92.4 | 104 | 95.5 | 102 | 97.4 | 98.9 | 102 | 105 | 97.2 | 97.9 | 89.6 | > 10 | > 10 | > 10 | > 10 | > 10 | 0 | 0 | 0 | 0 | 0
2 | COC(=O)N1CCN(Cc2cccc(NC(=O)Nc3ccc(C)nc3)c2F)CC1 [omecamtiv-mecarbil] | 93 | 89.7 | 95.3 | 96.3 | 87 | 92.4 | 94.4 | 107 | 97.4 | 99.9 | 105 | 96.1 | 100 | 98.5 | 97.1 | 97 | 101 | 93.3 | 99 | 97.4 | 105 | 100 | 104 | 101 | 99.1 | > 10 | > 10 | > 10 | > 10 | > 10 | 0 | 0 | 0 | 0 | 0
3 | COc1ccc(S(=O)(=O)Nc2nc(-c3cccc([N+](=O)[O-])c3)cs2)cc1OC [Ro-61-8048] | 133 | 90.8 | 110 | 124 | 95.8 | 107 | 89.5 | 103 | 97.9 | 124 | 107 | 86.1 | 101 | 102 | 106 | 98.6 | 93.5 | 99.4 | 100 | 106 | 101 | 97.2 | 85.1 | 102 | 97.9 | > 10 | > 10 | > 10 | > 10 | > 10 | 0 | 0 | 0 | 0 | 0
4 | CC1=C(/C=C/C(C)=C/C=C/C(C)=C/C=C/C=C(C)/C=C/C=C(C)/C=C/C2=C(C)C(=O)[C@@H](O)CC2(C)C)C(C)(C)C[C@H](O)C1=O [astaxanthin] | 103 | 109 | 84 | 84.8 | 81.9 | 98.9 | 97.6 | 101 | 96.4 | 99.6 | 84.3 | 102 | 98.9 | 102 | 107 | 97.8 | 104 | 100 | 93.6 | 98.4 | 102 | 96.9 | 103 | 101 | 92.1 | > 10 | > 10 | > 10 | > 10 | > 10 | 3.6 | 0 | 0 | 0 | 0
5 | O=C(Nc1nc(-c2cc(Cl)cs2)c(N2CCN(C3CCCCC3)CC2)s1)c1cnc(N2CCC(C(=O)O)CC2)c(Cl)c1 [avatrombopag] | 94.9 | 88.7 | 102 | 105 | 107 | 96.2 | 100 | 93.9 | 102 | 88.9 | 99.4 | 109 | 115 | 98 | 110 | 103 | 95.5 | 104 | 103 | 95.1 | 100 | 95 | 102 | 102 | 92 | > 10 | > 10 | > 10 | > 10 | > 10 | 0 | 0 | 0 | 0 | 0
6 | CCN(CC)CCOC(=O)c1cc(Cl)c(N)cc1OC [SDZ-205-557] | 95.5 | 101 | 97.9 | 106 | 104 | 107 | 101 | 88 | 96.6 | 90.1 | 105 | 97.1 | 90.6 | 93.3 | 102 | 98.9 | 102 | 97 | 103 | 98.3 | 106 | 104 | 99 | 94.8 | 97.3 | > 10 | > 10 | > 10 | > 10 | > 10 | 0 | 0 | 0 | 0 | 0
7 | CCN(c1ccccc1)c1cc(=NC)n(C)c(C)n1 [ZD-7288] | 103 | 102 | 113 | 101 | 97.3 | 106 | 101 | 91.8 | 103 | 96.9 | 98.1 | 109 | 99.4 | 102 | 93.5 | 97.4 | 97.6 | 103 | 98.7 | 96 | 108 | 103 | 99.3 | 102 | 99 | > 10 | > 10 | > 10 | > 10 | > 10 | 0 | 0 | 0 | 0 | 0
8 | CCCCC(=O)OCC(=O)[C@]1(O)Cc2c(O)c3c(c(O)c2[C@@H](O[C@H]2C[C@H](NC(=O)C(F)(F)F)[C@H](O)[C@H](C)O2)C1)C(=O)c1c(OC)cccc1C3=O [valrubicin] | 95.9 | 96.8 | 92.5 | 72.3 | 23.3 | 90.7 | 95.4 | 89.7 | 60.9 | 26.7 | 95.7 | 101 | 77.9 | 33.6 | 0.6 | 105 | 96.7 | 103 | 70.3 | 6.1 | 98.6 | 102 | 107 | 92.3 | 29.2 | 1.36 | 0.769 | 0.43 | 1.36 | 2.28 | 7.5 | 9 | 15.2 | 9.5 | 5.2
9 | N#CCC1(n2cc(-c3ncnc4[nH]ccc34)cn2)CN(C2CCN(C(=O)c3ccnc(C(F)(F)F)c3F)CC2)C1 [itacitinib] | 101 | 98.6 | 97.2 | 132 | 90.1 | 111 | 104 | 101 | 93.6 | 90.4 | 95.3 | 98.9 | 95 | 96.1 | 91.6 | 98.6 | 91 | 97.5 | 95.8 | 96 | 100 | 96.1 | 98.3 | 100 | 98.5 | > 10 | > 10 | > 10 | > 10 | > 10 | 0 | 0 | 0 | 0 | 0
10 | CC(=O)O[C@]1(C(C)=O)CC[C@H]2[C@@H]3C[C@H](C)C4=CC(=O)C=C[C@]4(C)[C@@]3(F)[C@@H](O)C[C@@]21C [fluorometholone-acetate] | 99.9 | 109 | 99.1 | 104 | 86.6 | 103 | 100 | 97.8 | 106 | 98.9 | 102 | 95.6 | 101 | 92.7 | 89.7 | 105 | 103 | 99.3 | 98.5 | 96.2 | 93.5 | 98.3 | 93.9 | 95.7 | 90.4 | > 10 | > 10 | > 10 | > 10 | > 10 | 0.1 | 0 | 0 | 0 | 0
11 | O=C1NCCN1c1ncc([N+](=O)[O-])s1 [niridazole] | 105 | 80.1 | 93.2 | 87.8 | 102 | 99.6 | 107 | 96.6 | 88 | 103 | 105 | 98.8 | 105 | 106 | 97.8 | 97.1 | 98.7 | 99.3 | 94.8 | 99.8 | 102 | 104 | 108 | 115 | 85.5 | > 10 | > 10 | > 10 | > 10 | > 10 | 0 | 0 | 0 | 0 | 0.1
